Columns and labels:
[1] = molecular target: T1, Gag-Pol polyprotein [588-1027,K690N]/[588-1147,K690N] (Human immunodeficiency virus 1, UniProt P04585, K690N); test: HIV-1 RT Assay; conditions: pH 7.8; 37 °C
T1 construct: 588-1027; 588-1147

[2] = molecular target: T2, Gag-Pol polyprotein [588-1127,Y768C]/[588-1147,Y768C] (Human immunodeficiency virus 1, UniProt P04585, Y768C); test: HIV-1 RT Assay; conditions: pH 7.8; 37 °C
T2 construct: 588-1127; 588-1147

Compound	IC50 [1] [µM]	IC50 [2] [µM]
Cc1cc(C)cc(S(=O)(=O)c2c(C(N)=O)[nH]c3ccc(Cl)cc23)c1 [5-chloro-3-[(3,5-dimethylbenzene)sulfonyl]-1H-indole-2-carboxamide]	> 5	0.13
Cc1ccc(S(=O)(=O)c2c(C(N)=O)[nH]c3ccc(Cl)cc23)cc1 [5-chloro-3-[(4-methylbenzene)sulfonyl]-1H-indole-2-carboxamide]	> 5	0.11
NC(=O)c1[nH]c2ccc(Cl)cc2c1S(=O)(=O)c1ccccc1 [5Cl3PhSO2-2IndolCONH2]	> 5	0.16
